Values after ≈ are worked out from the molar mass of the structure shown. “Also recorded” adds a separate entry of the source.
Experiments:
[1] = system: MCF-7 (breast cancer); assay: cells; assay type: cell-based; details: for IC50: Homo sapiens, MCF7, MTT, 72 h, mean ± SD of three replicates; for IC50 / SI (selectivity index) MCF-7: isolated compounds; for SI (selectivity index) MCF-7: IC50 HUVEC / IC50 MCF-7; for antiproliferative/cytotoxic activity against MCF-7 (in words): MTT assay
Procedure: (§1) The human cell lines MCF-7 (breast cancer), Ca Ski (cervical cancer), and HT-29 (colon cancer) were cultured as monolayer in RPMI 1640 growth media. HUVEC (human umbilical vein endothelial cells) and PC-3 (prostate cancer) cells were cultured in DMEM. All cells were purchased from the American Tissue Culture Collection (ATCC, USA) except for human umbilical vein endothelial cells (HUVEC) which were obtained from ScienCell Research Laboratories (Carlsbad, CA). All the media were supplemented with 10% v/v foetal bovine serum (FBS), 100 μg/mL penicillin/streptomycin, and 50 μg/mL amphotericin B. The cells were cultured in a 5% CO2 incubator at 37°C.
(§2) Cell viability was investigated using 3-(4, 5-dimethylthiazol-2-yl)-2, 5-diphenyltetrazolium bromide (MTT) assay. Cells were detached from the […] tissue culture flask when it achieved 80% confluency. The detached cells were pellet by centrifugation (1,000 rpm; 5 minutes). Cells (3.0 × 10^4 cells/mL) were seeded onto a 96-well microtiter plate (Nunc). The cells were incubated at 37°C CO2 incubator for 24 h to give adherent cells. The test compounds (1–100 μg/mL) were added onto the 96-well microtiter plate containing adherent cells. The untreated cells were incubated in 10% media containing 0.5% DMSO (without addition of any test compounds/extracts). This mixture was regarded as the negative control whereas doxorubicin as the positive control. The plates were incubated for 72 h at 37°C in a 5% CO2 incubator. After 72 h, the media were removed and 100 μL of fresh medium and 20 μL of MTT (Sigma, filter sterile, 5 mg/mL) were added to each well and further incubated for 4 hours (37°C) after which the media were substituted with 150 μL DMSO. The 96-well microtiter plates were then agitated at room temperature onto an incubator shaker to dissolve the formazan crystals. The absorbance (A) of the content of the plates was measured at 540 nm using a microplate reader. The percentage of inhibition of each test sample was calculated according to the following formula: Percentage of inhibition (%) = (A control − A sample)/A control × 100%. The average of three replicates was then obtained. The IC50 for each extract was extrapolated from the graphs of the percentage inhibition versus concentration of test agents. Cytotoxicity of each test agent is expressed as IC50 value. The IC50 value is the concentration of test agents that cause 50% inhibition or cell death, averaged from the three experiments. The selectivity index (SI) was also calculated as described by using the ratio between IC50 of the extract or compounds on normal cell lines (HUVEC) and IC50 of the tested extract or compounds on cancerous cell lines. Selectivity index (SI) values equal or greater than three were considered to have a high selectivity towards cancerous cells. An SI value denotes the selectivity of the sample to the tested cell lines.

[2] = system: HUVEC (human umbilical vein endothelial cells); assay: cells; assay type: cell-based; details: for IC50: Homo sapiens, HUVEC, isolated compounds, MTT, 72 h, normal cells; for toxicity towards normal cells HUVEC (in words): MTT assay
Procedure: as §1, §2

[3] = system: Ca Ski; set-up: method as in PMID 21629182; details: zerumin A isolated from Curcuma mangga; cited from earlier work
[4] = system: MCF-7; set-up: method as in PMID 21629182; details: zerumin A isolated from Curcuma mangga; cited from earlier work
[5] = system: HT-29 (colon cancer); assay: MTT cytotoxicity assay, HT-29; assay type: cell-based; details: for IC50: Homo sapiens, HT-29, MTT, 72 h, mean ± SD of three replicates; for IC50 / SI (selectivity index) HT-29: isolated compounds; for antiproliferative/cytotoxic activity against HT-29 (in words): MTT assay; for SI (selectivity index) HT-29: IC50 HUVEC / IC50 HT-29
Procedure: as §1, §2

[6] = system: PC-3 (prostate cancer); assay: MTT cytotoxicity assay, PC-3; assay type: cell-based; details: for IC50: Homo sapiens, MTT, 72 h, mean ± SD of three replicates; for IC50 / SI (selectivity index) PC-3: isolated compounds; for antiproliferative/cytotoxic activity against PC-3 (in words): MTT assay; for SI (selectivity index) PC-3: IC50 HUVEC / IC50 PC-3
Procedure: as §1, §2

[7] = set-up: method as in PMID 23160092; details: cited from earlier work
[8] = system: Ca Ski (cervical cancer); assay: cells; assay type: cell-based; details: for IC50: Homo sapiens, Ca-Ski, MTT, 72 h, mean ± SD of three replicates; for IC50 / SI (selectivity index) Ca Ski: isolated compounds; for SI (selectivity index) Ca Ski: IC50 HUVEC / IC50 Ca Ski
Procedure: as §1, §2

[9] = system: MCF-7 cells; assay: Phase contrast microscopy of treated MCF-7 cells; assay type: cell-based, human; details: 48 h; 12.5 and 25 µg/mL; inverted phase contrast microscope 400x
Procedure: Briefly, MCF-7 cells (5 × 10^5) were grown in a tissue culture dishes (60 mm) for overnight. Then, the cells were treated with curcumenone (3) and curcumenol (5) at a concentration of 12.5 and 25 μg/mL, respectively. After 48 hours, cells were gently rinsed with PBS. The observation of morphological changes of apoptotic MCF-7 cells after treatment with the two bioactive compounds was viewed using an inverted phase contrast microscope (Leica DMI 3000B, Germany) at 400x magnification according to the method.

[10] = system: MCF-7 cells; assay: Hoechst 33342/PI double staining, fluorescence microscopy; assay type: cell-based, human; details: 48 h, 12.5 and 25 μg/mL
Procedure: The morphological features of MCF-7 cells upon treatment by the test compounds also observed by double staining of Hoechst 33342/PI assay using the inverted fluorescence microscope (Leica, DM16000B). Briefly, 5 × 10^5 cells were grown overnight and treated with 12.5 and 25 μg/mL of curcumenone (3) and curcumenol (5). After treatment of cells with the test compounds for 48 hours, both floating and adherent cells were collected by centrifugation and washed once with cold PBS. Then, Hoechst 33342 solutions (10 μg/mL) were added and incubated at 37°C for 7 minutes. The cells were then stained with PI (2.5 μg/mL) and further incubated in the dark for 15 minutes. Cell suspension (100 μL) was mounted onto glass microscope slides and observed under fluorescence microscope using UV/488 dual excitation (460 nm emission of Hoechst 33342, 575 nm emission of PI). Approximately a total of 200 target cells were calculated and the morphological characteristics of the nuclei were analyzed for quantification of apoptosis and necrosis. The percentage of apoptotic, necrotic, and dead cells was determined according to the formula described by.

[11] = system: liver alcohol dehydrogenase; set-up: method as in PMID 23160092; details: cited from earlier work
[12] = set-up: method as in PMID 9871681; details: cited from earlier work
[13] = system: P450; set-up: method as in PMID 20148399; details: time- and NADPH-dependent inhibitions; cited from earlier work
[14] = set-up: method as in PMID 19043244; details: isolated from the rhizomes of Curcuma zedoaria; cited from earlier work

SMILES | IC50 [1] [µg/mL] | SI (selectivity index) MCF-7 [1] | IC50 [2] [µg/mL] | IC50 [5] [µg/mL] | antiproliferative/cytotoxic activity against HT-29 (in words) [5] | SI (selectivity index) HT-29 [5] | IC50 [6] [µg/mL] | antiproliferative/cytotoxic activity against PC-3 (in words) [6] | SI (selectivity index) PC-3 [6] | IC50 [8] [µg/mL] | SI (selectivity index) Ca Ski [8] | antiproliferative/cytotoxic activity against MCF-7 (in words) [1] | toxicity towards normal cells HUVEC (in words) [2] | morphological changes of MCF-7 cells [9] | apoptosis induction [10] | other results
C=C1CC[C@H]2C(C)(C)CCC[C@]2(C)[C@H]1CC=C(C=O)CC(=O)O (stereo in doubt) [Compound 16, zerumin A] | 22.3 ± 1.1 (≈ 70 µM) | 1.2 | 25.8 ± 1.9 (≈ 81 µM) | 17.4 ± 2 (≈ 54.6 µM) | moderate inhibitory activity | 1.5 | 21.9 ± 1.6 (≈ 68.8 µM) | moderate inhibitory activity | 1.2 | – | – | – | – | – | – | IC50 Ca Ski [3]: 8.7 ± 0.29 µg/mL (≈ 27.3 µM); IC50 MCF-7 [4]: 14.2 ± 0.06 µg/mL (≈ 44.6 µM)
CC(=O)CC[C@@H]1[C@H]2CC(=C(C)C)C(=O)C[C@@]12C [Compound 3, curcumenone] | 8.3 ± 1 (≈ 35.4 µM) | 6.0 | 50 ± 8.6 (≈ 213 µM) | 43.3 ± 6.2 (≈ 185 µM) | – | 1.2 | 39.8 ± 4.2 (≈ 170 µM) | – | 1.3 | > 100 | 0.5 | strong antiproliferative activity | slight toxicity | cell shrinkage, loss of contact with adjacent cells, and decrease in cell numbers | induction of apoptotic death occurred | effect on alcohol-treated mice [7]: protective effect; antiproliferative/cytotoxic activity against Ca Ski (in words) ([8]; MTT assay): did not show any antiproliferative activity; toxicity towards normal cells HUVEC (in words) ([2]; listed as curcumenone): low toxicity; effect on liver alcohol dehydrogenase activity [11]: acceleration of liver alcohol dehydrogenase activity; effect on D-galactosamine/lipopolysaccharide-induced acute liver injury [12]: effective protective effect
CC1=C[C@]2(O)O[C@@]3(CC2=C(C)C)[C@@H](C)CC[C@@H]13 [Compound 5, curcumenol] | 9.3 ± 0.3 (≈ 39.7 µM) | 2.8 | 25.9 ± 1.4 (≈ 111 µM) | 24.8 ± 2.7 (≈ 106 µM) | moderate inhibitory activity | 1.0 | 17.3 ± 1.2 (≈ 73.8 µM) | moderate inhibitory activity | 1.5 | 18.5 ± 1 (≈ 78.9 µM) | 1.4 | strong antiproliferative activity | low toxicity | cell shrinkage, loss of contact with adjacent cells, and decrease in cell numbers | induction of apoptotic death occurred; also recorded: better inducing apoptosis capacity in comparison to curcumenone (3) | mechanism-based P450 inhibition [13]: not a mechanism-based inhibitor
C/C1=C\CC[C@@]2(C)O[C@@H]2CC(C)(C)/C=C/C1=O [Compound 8, zerumbone epoxide] | 24.1 ± 0.1 (≈ 103 µM) | 0.6 | 14.2 ± 1.1 (≈ 60.6 µM) | 13.7 ± 2.7 (≈ 58.5 µM) | good cytotoxic effect | 1.0 | 10.8 ± 1.9 (≈ 46.1 µM) | good cytotoxic effect | 1.3 | 34.5 ± 0.6 (≈ 147 µM) | 0.4 | – | slight toxicity | – | – | cytotoxic effects [14]: possessed cytotoxic effects
CC1=CCCC2(C)OC2C(=O)c2c(C)coc2C1 (stereo not drawn) [Compound 9, zederone] | > 100 | 0.4 | 42.1 ± 2.7 (≈ 171 µM) | 19.1 ± 2.5 (≈ 77.5 µM) | moderate inhibitory activity | 2.2 | 27 ± 1.9 (≈ 110 µM) | moderate inhibitory activity | 1.6 | > 100 | 0.4 | – | – | – | – | –

From article PMC4121215, “Cytotoxic Constituents from the Rhizomes of Curcuma zedoaria” (The Scientific World Journal, 2014)
